Assay results published in ChEMBL document CHEMBL1201862, “PubChem BioAssay data set” (2004).
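Growth conditions: 96-well plates. Treatment: test compound, 48 hours, 5 concentrations. Analysis: linear interpolation between bracketing concentrations; unreached endpoints set to highest concentration. GI50: concentration for 50% inhibition of growth.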 The source made the active and inactive calls. Cut-off read from the data, not from the text of the source: active = GI50 up to about 1.1 µM and inactive = higher.

What was measured:
Test in all cases: NCI anticancer screen, dose series, 48 h
HOP-92 = tested on: HOP-92
RPMI-8226 = tested on: RPMI-8226
COLO 205 = tested on: COLO 205
RXF 393 = tested on: RXF 393
OVCAR-5 = tested on: OVCAR-5
SNB-75 = tested on: SNB-75
SK-MEL-5 = tested on: SK-MEL-5
UO-31 = tested on: UO-31
K562 = tested on: K562
CCRF-CEM = tested on: CCRF-CEM
UACC-257 = tested on: UACC-257
SN12C = tested on: SN12C
SF-268 = tested on: SF-268
SNB-19 = tested on: SNB-19
SK-MEL-2 = tested on: SK-MEL-2
IGROV-1 = tested on: IGROV-1
A549 = tested on: A549
OVCAR-3 = tested on: OVCAR-3
NCI-H226 = tested on: NCI-H226
HT-29 = tested on: HT-29

Structure (SMILES) | GI50 (HOP-92) | GI50 (RPMI-8226) | GI50 (COLO 205) | GI50 (RXF 393) | GI50 (OVCAR-5) | GI50 (SNB-75) | GI50 (SK-MEL-5) | GI50 (UO-31) | GI50 (K562) | GI50 (CCRF-CEM) | GI50 (UACC-257) | GI50 (SN12C) | GI50 (SF-268) | GI50 (SNB-19) | GI50 (SK-MEL-2) | GI50 (IGROV-1) | GI50 (A549) | GI50 (OVCAR-3) | GI50 (NCI-H226) | GI50 (HT-29)
C=C/C(C)=C/[C@H](C)C(=O)C[C@H](O)CC1CC(=O)NC(=O)C1 | 21.7 µM (inactive) | 31.8 µM (inactive) | 34.1 µM (inactive) | 38.5 µM (inactive) | 58.9 µM (inactive) | > 55.8 µM (inactive) | 34.5 µM (inactive) | 48.9 µM (inactive) | 43.4 µM (inactive) | 25 µM (inactive) | 30.1 µM (inactive) | 25.5 µM (inactive) | 36 µM (inactive) | 18.7 µM (inactive) | 28.9 µM (inactive) | 19.9 µM (inactive) | 51.3 µM (inactive) | 49.2 µM (inactive) | 41 µM (inactive) | 34 µM (inactive)
O=c1cnn(C2OC(CO)C(O)C2O)c(=S)[nH]1 (stereo not given) | > 100 µM (inactive) | 0.993 µM (active) | 54.1 µM (inactive) | > 100 µM (inactive) | > 78.3 µM (inactive) | > 100 µM (inactive) | > 55.5 µM (inactive) | 28.2 µM (inactive) | 0.589 µM (active) | 2.52 µM (inactive) | > 100 µM (inactive) | > 82 µM (inactive) | 11.1 µM (inactive) | 43.1 µM (inactive) | 20.4 µM (inactive) | 28.7 µM (inactive) | 2.15 µM (inactive) | > 54.2 µM (inactive) | > 100 µM (inactive) | 13.5 µM (inactive)
COc1cc(CCCl)c(CC2=NCCc3cc(OC)c(OC)cc32)cc1OC | > 100 µM (inactive) | 39.4 µM (inactive) | 47.4 µM (inactive) | 32.3 µM (inactive) | > 100 µM (inactive) | > 100 µM (inactive) | 67.8 µM (inactive) | 69.3 µM (inactive) | 31 µM (inactive) | 45.7 µM (inactive) | > 100 µM (inactive) | 80.9 µM (inactive) | 97.3 µM (inactive) | > 100 µM (inactive) | > 100 µM (inactive) | 29.4 µM (inactive) | > 100 µM (inactive) | > 100 µM (inactive) | > 100 µM (inactive) | 32.5 µM (inactive)
CSc1nc2c(ncn2C2OCC(O)C(O)C2O)c(=O)n1C (stereo not given) | > 100 µM (inactive) | > 100 µM (inactive) | > 100 µM (inactive) | > 100 µM (inactive) | > 100 µM (inactive) | 73.6 µM (inactive) | > 100 µM (inactive) | > 100 µM (inactive) | > 100 µM (inactive) | > 100 µM (inactive) | > 100 µM (inactive) | > 100 µM (inactive) | > 100 µM (inactive) | > 100 µM (inactive) | > 100 µM (inactive) | > 100 µM (inactive) | > 100 µM (inactive) | > 100 µM (inactive) | > 100 µM (inactive) | > 100 µM (inactive)
CN(C(=O)c1ccc(OCCCC(=O)O)c(Cl)c1Cl)C1CCCC1 | 45.3 µM (inactive) | 98.6 µM (inactive) | > 100 µM (inactive) | > 71.1 µM (inactive) | > 100 µM (inactive) | 80.4 µM (inactive) | > 100 µM (inactive) | > 60 µM (inactive) | > 100 µM (inactive) | > 100 µM (inactive) | > 100 µM (inactive) | > 100 µM (inactive) | > 96.4 µM (inactive) | > 100 µM (inactive) | > 79.8 µM (inactive) | > 100 µM (inactive) | > 100 µM (inactive) | > 100 µM (inactive) | 83.8 µM (inactive) | > 100 µM (inactive)
CCCCCCCCCCCC1=C(O)C(=O)C=C(O)C1=O [EMBELIN] | 4.09 µM (inactive) | 3.81 µM (inactive) | 7.5 µM (inactive) | 12.9 µM (inactive) | 8.83 µM (inactive) | 6.31 µM (inactive) | 4.84 µM (inactive) | 5.56 µM (inactive) | 7.67 µM (inactive) | 4.27 µM (inactive) | 6.17 µM (inactive) | 4.73 µM (inactive) | 3.92 µM (inactive) | 16.3 µM (inactive) | 5.11 µM (inactive) | 6.76 µM (inactive) | 4.36 µM (inactive) | 4.71 µM (inactive) | 5.25 µM (inactive) | 8.15 µM (inactive)
COc1ccc2cc1Oc1ccc(cc1)C[C@H]1c3cc(c(OC)cc3CCN1C)Oc1c(O)c(OC)cc3c1[C@H](C2)N(C)CC3 [FANGCHINOLINE] | 7.64 µM (inactive) | 8.91 µM (inactive) | 15.8 µM (inactive) | 16.5 µM (inactive) | 46.3 µM (inactive) | 28.7 µM (inactive) | 13.6 µM (inactive) | 25.5 µM (inactive) | 11.4 µM (inactive) | 24.3 µM (inactive) | 9.48 µM (inactive) | 38.8 µM (inactive) | 30.2 µM (inactive) | 43.8 µM (inactive) | 26.5 µM (inactive) | 27.1 µM (inactive) | 31.5 µM (inactive) | 21.6 µM (inactive) | 39.9 µM (inactive) | 22.3 µM (inactive)
